As a reminder, the pIC50 is the IC50 on a negative log10 scale, so that one unit is a factor of ten.

Holding throughout (format): biochemical
In one assay the target is T1, AXL (Homo sapiens, UniProt P30530).
T1 sequence (P30530 26-894): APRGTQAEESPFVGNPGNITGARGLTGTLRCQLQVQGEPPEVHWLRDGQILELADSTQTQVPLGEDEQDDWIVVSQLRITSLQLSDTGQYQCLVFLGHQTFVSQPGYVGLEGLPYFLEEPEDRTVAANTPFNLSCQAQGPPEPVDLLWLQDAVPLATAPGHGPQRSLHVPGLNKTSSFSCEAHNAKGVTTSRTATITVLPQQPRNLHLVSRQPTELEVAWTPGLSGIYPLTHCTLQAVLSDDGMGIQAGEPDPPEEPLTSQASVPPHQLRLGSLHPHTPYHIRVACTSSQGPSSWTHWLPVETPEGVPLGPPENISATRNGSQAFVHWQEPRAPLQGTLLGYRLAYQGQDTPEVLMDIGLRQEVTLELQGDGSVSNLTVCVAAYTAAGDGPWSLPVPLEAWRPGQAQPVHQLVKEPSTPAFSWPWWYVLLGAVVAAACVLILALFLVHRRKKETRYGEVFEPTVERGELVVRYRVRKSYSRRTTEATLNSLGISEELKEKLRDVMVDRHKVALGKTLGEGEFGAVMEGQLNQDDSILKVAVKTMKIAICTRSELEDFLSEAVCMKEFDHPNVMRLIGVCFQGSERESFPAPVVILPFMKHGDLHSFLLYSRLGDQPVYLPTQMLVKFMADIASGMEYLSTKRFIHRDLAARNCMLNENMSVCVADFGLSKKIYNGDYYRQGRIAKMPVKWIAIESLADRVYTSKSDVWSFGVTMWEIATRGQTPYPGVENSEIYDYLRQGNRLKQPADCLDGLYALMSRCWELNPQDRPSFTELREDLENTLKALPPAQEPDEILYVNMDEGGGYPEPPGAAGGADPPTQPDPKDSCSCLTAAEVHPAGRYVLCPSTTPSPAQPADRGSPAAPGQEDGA
Put plainly: TR-FRET kinase activity assay, AXL. The following applies: ATP at Km, 60 minutes. As for the experimental part: (§1) IC50 values for compound inhibition of AXL, FLT3, MERTK and TYRO3 activity were determined by using a TR-FRET activity assay. A polypeptide substrate with a fluorescent label is phosphorylated on a tyrosine by each enzyme, where the now phosphorylated product is bound by a Europium-labeled antibody specific to that phosphorylation site. The proximity between the antibody and the substrate gives a signal known as TR-FRET. As the enzyme is inhibited by compound, less phosphorylated peptide product is made causing a decrease in overall signal.
(§2) Activity assays were performed in a 384-well, small volume, black microplates in an active enzyme volume of 10 μL and final developed volume of 20 μL. Final assay conditions are 50 mM HEPES pH 7.5, 10 mM MgCl2, 1 mM EGTA, 0.01% Brij 35 and 1 mM DTT all at RT. Enzyme, substrate labeled peptide and compound are mixed, and then the reaction is initiated with the addition of ATP at Km concentration for each enzyme. The reaction is allowed to run 60 minutes and then quenched with a 12.5 mM EDTA (ethylenediamine tetraacetic acid) solution. The plate is then developed with the addition of Europium labeled antibody for a final volume of 20 μL and is then incubated for 30 minutes in darkness. Plates are read in a Pherastar plate reader. Data is analyzed in GraphPad PRISM.
(§3) The results of these assays are shown in Table 1, below, wherein “No.” designates compound number (FIG. 1); “A” represents a value of ≤100 nM; “B” a value of >100 nM and ≤1 μM; “C” a value of >1 μM and ≤10 μM; “D” a value of >10 μM; “ND” is not determined. The ratio of Mer to FLT3 is calculated as follows: FLT3 IC50/Mer IC50. “+” represents a ratio of >2.0 and <10; “++” represents a ratio of between 10 and 100; and “+++” represents a ratio of >100.

The next assay deals with T2, FLT3 (Homo sapiens, UniProt P36888).
T2 sequence (P36888 27-993): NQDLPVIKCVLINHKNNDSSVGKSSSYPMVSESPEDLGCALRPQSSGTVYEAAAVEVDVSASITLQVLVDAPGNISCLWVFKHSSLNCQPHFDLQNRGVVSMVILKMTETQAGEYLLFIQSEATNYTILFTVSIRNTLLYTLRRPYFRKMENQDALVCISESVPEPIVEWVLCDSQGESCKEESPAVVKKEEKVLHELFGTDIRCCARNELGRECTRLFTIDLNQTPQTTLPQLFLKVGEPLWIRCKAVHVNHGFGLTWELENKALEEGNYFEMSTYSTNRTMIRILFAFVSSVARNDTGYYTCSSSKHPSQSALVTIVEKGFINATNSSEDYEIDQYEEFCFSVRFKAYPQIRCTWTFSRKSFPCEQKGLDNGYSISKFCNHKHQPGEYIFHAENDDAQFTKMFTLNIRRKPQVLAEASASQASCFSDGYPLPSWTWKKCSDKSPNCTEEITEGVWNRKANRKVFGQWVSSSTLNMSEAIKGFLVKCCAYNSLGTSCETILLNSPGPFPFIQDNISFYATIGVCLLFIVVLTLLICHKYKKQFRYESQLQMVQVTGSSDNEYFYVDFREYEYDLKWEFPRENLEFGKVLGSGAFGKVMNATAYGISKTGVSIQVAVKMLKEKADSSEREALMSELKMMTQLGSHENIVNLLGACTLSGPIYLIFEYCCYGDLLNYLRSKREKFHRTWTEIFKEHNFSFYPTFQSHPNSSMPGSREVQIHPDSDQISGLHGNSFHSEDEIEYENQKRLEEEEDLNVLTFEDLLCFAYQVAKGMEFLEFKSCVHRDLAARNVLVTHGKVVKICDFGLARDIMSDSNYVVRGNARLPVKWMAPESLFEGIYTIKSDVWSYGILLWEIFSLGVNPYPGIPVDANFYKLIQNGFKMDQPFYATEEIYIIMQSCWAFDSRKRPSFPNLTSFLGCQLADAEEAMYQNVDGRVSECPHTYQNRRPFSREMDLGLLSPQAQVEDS
Put plainly: TR-FRET kinase activity assay, FLT3. The settings on record: ATP at Km, 60 minutes. As to the method: as §1, §2, §3
(In general: Time-resolved FRET reads energy transfer from a long-lived donor to a nearby acceptor.)

Another assay deals with T3, MERTK (Homo sapiens, UniProt Q12866).
T3 sequence (Q12866 21-999): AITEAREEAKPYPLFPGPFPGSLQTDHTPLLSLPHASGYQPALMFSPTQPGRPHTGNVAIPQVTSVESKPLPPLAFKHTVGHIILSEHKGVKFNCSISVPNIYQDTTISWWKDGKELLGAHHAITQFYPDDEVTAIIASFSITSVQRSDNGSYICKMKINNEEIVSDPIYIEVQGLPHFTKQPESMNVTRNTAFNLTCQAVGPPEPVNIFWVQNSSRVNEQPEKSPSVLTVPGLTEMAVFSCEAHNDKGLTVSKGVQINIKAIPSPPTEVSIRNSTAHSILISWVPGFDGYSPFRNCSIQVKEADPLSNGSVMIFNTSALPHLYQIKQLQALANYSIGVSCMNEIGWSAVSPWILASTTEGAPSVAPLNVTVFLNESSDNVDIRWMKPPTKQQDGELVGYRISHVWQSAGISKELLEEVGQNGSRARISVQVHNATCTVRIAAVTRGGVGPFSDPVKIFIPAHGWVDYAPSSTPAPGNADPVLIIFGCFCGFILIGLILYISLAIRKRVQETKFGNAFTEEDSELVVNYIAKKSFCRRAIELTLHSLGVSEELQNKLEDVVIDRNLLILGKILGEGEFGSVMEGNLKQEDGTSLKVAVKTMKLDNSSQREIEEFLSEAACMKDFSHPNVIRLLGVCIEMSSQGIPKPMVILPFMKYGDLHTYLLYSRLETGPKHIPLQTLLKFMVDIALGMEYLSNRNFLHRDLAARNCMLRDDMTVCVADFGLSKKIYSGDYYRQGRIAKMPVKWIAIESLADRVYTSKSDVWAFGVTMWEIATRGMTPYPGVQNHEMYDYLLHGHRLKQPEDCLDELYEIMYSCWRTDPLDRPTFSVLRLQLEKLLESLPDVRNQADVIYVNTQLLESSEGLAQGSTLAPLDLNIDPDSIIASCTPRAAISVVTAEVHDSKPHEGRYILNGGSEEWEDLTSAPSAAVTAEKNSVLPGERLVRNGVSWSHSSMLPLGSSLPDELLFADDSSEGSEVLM
Put plainly: TR-FRET kinase activity assay, MERTK. The settings on record: for pIC50: TR-FRET activity assay, ATP at Km, 60 minutes, read-out: Mer IC50; for FLT3/Mer ratio (FLT3 IC50/Mer IC50): ratio of Mer to FLT3: FLT3 IC50/Mer IC50. As for the experimental part:
as §1, §2, §3

Each structure is given as a SMILES string. pIC50: −log10 of the molar value. Where a name gives a salt, the structure may show the parent alone.

For the compound `CCCCNc1ncc2c(-c3ccc(S(=O)(=O)N4CCOCC4)cc3)cc([C@H]3CC[C@H](O)CC3)n2n1` [Compound 101], the pIC50 against AXL, against FLT3 and on MERTK was not below 7.00 in each case. Besides, the “FLT3/Mer ratio (FLT3 IC50/Mer IC50)” value at MERTK was “+ (“+” represents a ratio of >2.0 and <10)”.
`CCCCC[C@H](C)Nc1ncc2c(C(=O)Nc3ccc(F)cc3)cc(C3CCC(O)CC3)n2n1` (stereo partly drawn) [Compound 111, N-(4-fluorophenyl)-7-(4-hydroxycyclohexyl)-2-[[(1S)-1-methylhexyl]amino]pyrrolo[2,1-f][1,2,4]triazine-5-carboxamide]: the pIC50 against AXL is less than 5.00; against FLT3, 5.00 to 6.00; on MERTK, 5.00 to 6.00. Further, on MERTK, the “FLT3/Mer ratio (FLT3 IC50/Mer IC50)” value is “+ (“+” represents a ratio of >2.0 and <10)”.
In the case of `CCCCCC(C)Nc1ncc2c(Nc3ccc(F)cc3)cc(C3CCC(O)CC3)n2n1` [Compound 106, (1S,4r)-4-(5-((4-fluorophenyl)amino)-2-((S)-heptan-2-ylamino)pyrrolo[2,1-f][1,2,4]triazin-7-yl)cyclohexanol hydrochloride], the values for the pIC50 against AXL, against FLT3 and at MERTK were less than 5.00, less than 5.00 and 6.00 to 7.00, respectively. The “FLT3/Mer ratio (FLT3 IC50/Mer IC50)” value at MERTK was “++ (“++” represents a ratio of between 10 and 100)”.
As for `COC[C@H](C)Nc1ncc2c(-c3cnn(C[C@@H]4CC(=O)N(C)C4)c3)cc([C@H]3CC[C@H](O)CC3)n2n1` [Compound 476], the pIC50 against FLT3 was 6.00 to 7.00; on MERTK it was not below 7.00.

Values taken from patent US11040981B2, “Pyrrolotriazine compounds and methods of inhibiting TAM kinases” (Syros Pharmaceuticals, Inc., priority 2017, dated 2021).
